Common to all, as to assay type: in vivo
Assay [1] has as its system Alopecurus myosuroides (ALOMY). Nature of the assay: Pre-emergence biological efficacy, glasshouse pot test. Particulars: 312 h. In outline: (§1)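 Test compound, formulated in acetone/water (50:50) containing 0.5% Tween 20 and diluted into an aqueous spray, was applied at 1000 or 250 g/ha to pots sown one day earlier. Injury was rated after 13 days, 100 meaning total damage.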

For assay [2], the system named is Amaranthus retoflexus (AMARE). Described as above. Particulars: Amaranthus retroflexus, 312 h. In outline:
as §1

In assay [3] the test system is Echinochloa crus-galli (ECHCG). Described as above. Particulars: 312 h. The method in brief: as §1
Assay [4] has as its system Ipomea hederaceae (IPOHE). The assay is described as above. As to conditions: Ipomoea hederacea, 312 h. The method in brief: as §1
The subject of assay [5] is Setaria faberi (SETFA). The description is as above. Particulars: 312 h. The method in brief: as §1
Assay [6] deals with Solanum nigrum (SOLNI). The assay is described as above. Particulars: 312 h. In outline: as §1
The subject of assay [7] is Alopecurus myosuroides (ALOMY). As to the kind of experiment: Post-emergence biological efficacy, glasshouse pot test. As to conditions: 312 h. In outline:
(§2)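 Plants were sown in standard soil and grown 8 days in a glasshouse (24/16° C. day/night, 14 hours light, 65% humidity), then sprayed post-emergence at 1000 or 250 g/ha from acetone/water (50:50) with 0.5% Tween 20. Damage was scored visually after 13 days (0 = none, 100 = total).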

Assay [8] has as its system Amaranthus retoflexus (AMARE). Described as above. As to conditions: Amaranthus retroflexus, 312 h. In outline:
as §2

For assay [9], the system named is Echinochloa crus-galli (ECHCG). The assay is described as above. Particulars: 312 h. The method in brief:
as §2

Assay [10] relates to Ipomea hederaceae (IPOHE). The description is as above. As to conditions: Ipomoea hederacea, 312 h. In outline:
as §2

In assay [11] the test system is Setaria faberi (SETFA). Described as above. Particulars: 312 h. In outline:
as §2

Assay [12] relates to Solanum nigrum (SOLNI). The assay is described as above. As to conditions: 312 h. In outline: as §2
Setting [13] is: pre-emergence, 1,000 g/ha, evaluated after 13 days (100=total damage; 0=no damage), read-out: Percentage damage ALOMY.
[14] abbreviates: pre-emergence, 1,000 g/ha, evaluated after 13 days (100=total damage; 0=no damage), read-out: Percentage damage AMARE.
Setting [15] is: pre-emergence, 1,000 g/ha, evaluated after 13 days (100=total damage; 0=no damage), read-out: Percentage damage ECHCG.
Where [16] appears, read: pre-emergence, 1,000 g/ha, evaluated after 13 days (100=total damage; 0=no damage), read-out: Percentage damage IPOHE.
The mark [17] stands for this setting: pre-emergence, 1,000 g/ha, evaluated after 13 days (100=total damage; 0=no damage), read-out: Percentage damage SETFA.
The mark [18] stands for this setting: pre-emergence, 1,000 g/ha, evaluated after 13 days (100=total damage; 0=no damage), read-out: Percentage damage SOLNI.
Where [19] appears, read: post-emergence, 1,000 g/ha, evaluated after 13 days (100=total damage; 0=no damage), read-out: Percentage damage caused to weed species, ALOMY.
Where [20] appears, read: post-emergence, 1,000 g/ha, evaluated after 13 days (100=total damage; 0=no damage), read-out: Percentage damage caused to weed species, AMARE.
Where [21] appears, read: post-emergence, 1,000 g/ha, evaluated after 13 days (100=total damage; 0=no damage), read-out: Percentage damage caused to weed species, ECHCG.
[22] abbreviates: post-emergence, 1,000 g/ha, evaluated after 13 days (100=total damage; 0=no damage), read-out: Percentage damage caused to weed species, IPOHE.
Where [23] appears, read: post-emergence, 1,000 g/ha, evaluated after 13 days (100=total damage; 0=no damage), read-out: Percentage damage caused to weed species, SETFA.
Setting [24] is: post-emergence, 1,000 g/ha, evaluated after 13 days (100=total damage; 0=no damage), read-out: Percentage damage caused to weed species, SOLNI.
[25] abbreviates: pre-emergence, rate 1,000 g/ha, evaluated after 13 days (100=total damage to plant; 0=no damage), read-out: Percentage damage caused to weed species, ALOMY.
The mark [26] stands for this setting: pre-emergence, rate 1,000 g/ha, evaluated after 13 days (100=total damage to plant; 0=no damage), read-out: Percentage damage caused to weed species, AMARE.
Where [27] appears, read: pre-emergence, rate 1,000 g/ha, evaluated after 13 days (100=total damage to plant; 0=no damage), read-out: Percentage damage caused to weed species, ECHCG.
The mark [28] stands for this setting: pre-emergence, rate 1,000 g/ha, evaluated after 13 days (100=total damage to plant; 0=no damage), read-out: Percentage damage caused to weed species, IPOHE.
[29] abbreviates: pre-emergence, rate 1,000 g/ha, evaluated after 13 days (100=total damage to plant; 0=no damage), read-out: Percentage damage caused to weed species, SETFA.
The mark [30] stands for this setting: pre-emergence, rate 1,000 g/ha, evaluated after 13 days (100=total damage to plant; 0=no damage), read-out: Percentage damage caused to weed species, SOLNI.
Where [31] appears, read: Rate 1,000 g/ha, post-emergence spray, evaluated after 13 days (100=total damage to plant; 0=no damage to plant), read-out: Percentage damage caused to weed species, post-emergence, ALOMY.
Where [32] appears, read: Rate 1,000 g/ha, post-emergence spray, evaluated after 13 days (100=total damage to plant; 0=no damage to plant), read-out: Percentage damage caused to weed species, post-emergence, AMARE.
[33] abbreviates: Rate 1,000 g/ha, post-emergence spray, evaluated after 13 days (100=total damage to plant; 0=no damage to plant), read-out: Percentage damage caused to weed species, post-emergence, ECHCG.
Where [34] appears, read: Rate 1,000 g/ha, post-emergence spray, evaluated after 13 days (100=total damage to plant; 0=no damage to plant), read-out: Percentage damage caused to weed species, post-emergence, IPOHE.
The mark [35] stands for this setting: Rate 1,000 g/ha, post-emergence spray, evaluated after 13 days (100=total damage to plant; 0=no damage to plant), read-out: Percentage damage caused to weed species, post-emergence, SETFA.
Where [36] appears, read: Rate 1,000 g/ha, post-emergence spray, evaluated after 13 days (100=total damage to plant; 0=no damage to plant), read-out: Percentage damage caused to weed species, post-emergence, SOLNI.

The structures appear in SMILES notation.

In the case of `COC(=O)c1nc(C2CC2)nc(NCc2ccc(C)o2)c1Cl` [Compound 4-135, 5-Chloro-2-cyclopropyl-6-methoxy carbonyl-4-(5-methylfuran-2-ylmethylamino)-pyrimidine], the pest or weed control at 1000 g/ha in [1] (setting [13]) worked out at 60%; in [2] (setting [14]) it was 100%; in assay [3] (setting [15]), 100%; in [4] (setting [16]), 100%; with Setaria faberi (SETFA) [5] (setting [17]), 90%; in the assay on Solanum nigrum (SOLNI) [6] (setting [18]), 100%. In addition, the pest or weed control at 1000 g/ha is 60% in assay [7] (setting [19]); 100% in [8] (setting [20]); 90% in assay [9] (setting [21]); 100% in [10] (setting [22]); 90% with Setaria faberi (SETFA) [11] (setting [23]); 100% in the assay with Solanum nigrum (SOLNI) [12] (setting [24]).
As for `COc1c(Cl)ccc(-c2nc(NCc3ccco3)c(Cl)c(C(=O)O)n2)c1F` [Compound 109-125, 5-Chloro-2-(4-chloro-2-fluoro-3-methoxyphenyl)-4-(furan-2-yl-methyl-amino)pyrimidine-6-carboxylic acid], the pest or weed control at 1000 g/ha in assay [1] (setting [25]) was 70%; in [2] (setting [26]), 100%; in assay [3] (setting [27]), 90%; in assay [4] (setting [28]), 100%; in the assay with Setaria faberi (SETFA) [5] (setting [29]), 90%; in the assay with Solanum nigrum (SOLNI) [6] (setting [30]), 100%. Further, the pest or weed control at 1000 g/ha in assay [7] (setting [31]) was determined as 70%; in assay [8] (setting [32]), 100%; in [9] (setting [33]) it was 80%; in [10] (setting [34]) it was 100%; in the assay on Setaria faberi (SETFA) [11] (setting [35]), 90%; in the assay on Solanum nigrum (SOLNI) [12] (setting [36]) it was 90%.
As to `COC(=O)c1nc(C2CC2)nc(NCc2ccc(OC(F)(F)F)cc2)c1Cl` [Compound 4-83, 5-Chloro-2-cyclopropyl-6-methoxycarbonyl-4-(4-trifluoromethoxy-phenylmethyl-amino)pyrimidine], the pest or weed control at 1000 g/ha in assay [1] (setting [13]) came to 0%; in [2] (setting [14]) it was 60%; in assay [3] (setting [15]), 0%; in [4] (setting [16]) it was 50%; with Setaria faberi (SETFA) [5] (setting [17]), 10%; in the assay on Solanum nigrum (SOLNI) [6] (setting [18]) it was 40%. In addition, the pest or weed control at 1000 g/ha in assay [7] (setting [19]) was found to be 20%; in assay [8] (setting [20]), 100%; in [9] (setting [21]) it was 60%; in assay [10] (setting [22]), 100%; in the assay with Setaria faberi (SETFA) [11] (setting [23]), 90%; with Solanum nigrum (SOLNI) [12] (setting [24]) it was 100%.
As for `COC(=O)c1nc(-c2ccc(OC)cc2C)nc(NCc2ccco2)c1Cl` [Compound 251-48, 5-Chloro-4-(furan-2-yl-methylamino)-2-(4-methoxy-2-methyl-pheny)-6-methoxy-carbonylpyrimidine], the pest or weed control at 1000 g/ha (in assay [1] (setting [25]); in assay [2] (setting [26]); in [3] (setting [27]); in [4] (setting [28]); in the assay with Setaria faberi (SETFA) [5] (setting [29]); in the assay with Solanum nigrum (SOLNI) [6] (setting [30])) was 0% each time. In addition, the pest or weed control at 1000 g/ha in [7] (setting [31]) was found to be 0%; in assay [8] (setting [32]) it was 0%; in assay [9] (setting [33]), 0%; in assay [10] (setting [34]), 0%; in the assay on Setaria faberi (SETFA) [11] (setting [35]) it was 0%; in the assay with Solanum nigrum (SOLNI) [12] (setting [36]) it was 20%.
As for `COC(=O)c1nc(C2CC2)nc(NCc2cccc([N+](=O)[O-])c2)c1Cl` [Compound 4-91, 5-Chloro-2-cyclopropyl-6-methoxycarbonyl-4-(3-nitrophenyl-methylamino)-pyrimidine], the pest or weed control at 1000 g/ha in [1] (setting [13]) stood at 10%; in [2] (setting [14]) it was 50%; in [3] (setting [15]), 20%; in [4] (setting [16]), 60%; in the assay on Setaria faberi (SETFA) [5] (setting [17]), 20%; with Solanum nigrum (SOLNI) [6] (setting [18]), 50%. The pest or weed control at 1000 g/ha came out at 50% in [7] (setting [19]); 100% in assay [8] (setting [20]); 80% in [9] (setting [21]); 100% in assay [10] (setting [22]); 90% with Setaria faberi (SETFA) [11] (setting [23]); 100% in the assay with Solanum nigrum (SOLNI) [12] (setting [24]).
For `COC(=O)c1nc(C2CC2)nc(NCc2ccc(Cl)cc2)c1Cl` [Compound 4-63, 5-Chloro-4-(4-chlorophenylmethyl-amino)-2-cyclopropyl-6-methoxycarbonyl-pyrimidine], the pest or weed control at 1000 g/ha is 20% in assay [1] (setting [13]); 60% in [2] (setting [14]); 20% in assay [3] (setting [15]); 60% in [4] (setting [16]); 20% in the assay with Setaria faberi (SETFA) [5] (setting [17]); 60% in the assay on Solanum nigrum (SOLNI) [6] (setting [18]). Moreover, the pest or weed control at 1000 g/ha in assay [7] (setting [19]) came to 40%; in assay [8] (setting [20]) it was 100%; in assay [9] (setting [21]) it was 50%; in [10] (setting [22]), 80%; with Setaria faberi (SETFA) [11] (setting [23]), 80%; with Solanum nigrum (SOLNI) [12] (setting [24]), 90%.
`COC(=O)c1nc(C2CC2)nc(N[C@@H](c2ccccc2)[C@H](O)c2ccccc2)c1Cl` [4-280 (1S,2R), 5-Chloro-2-cyclopropyl-4-[(1S, 2R)-1,2-diphenyl-2-hydroxy-ethylamino]-6-methoxycarbonyl-pyrimidine]: the pest or weed control at 1000 g/ha was found to be 20% in assay [1] (setting [13]); 100% in [2] (setting [14]); 40% in assay [3] (setting [15]); 80% in [4] (setting [16]); 30% with Setaria faberi (SETFA) [5] (setting [17]); 90% with Solanum nigrum (SOLNI) [6] (setting [18]). The pest or weed control at 1000 g/ha in assay [7] (setting [19]) amounted to 40%; in assay [8] (setting [20]), 100%; in assay [9] (setting [21]), 60%; in assay [10] (setting [22]), 100%; in the assay with Setaria faberi (SETFA) [11] (setting [23]), 80%; in the assay with Solanum nigrum (SOLNI) [12] (setting [24]) it was 100%.

Source of the values: patent publication US20110086759A1, “CHEMICAL COMPOUNDS” (SYNGENTA CROP PROTECTION, INC., priority 2007, published 2011).
